In PubChem BioAssay (NCI):
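96-well plates; 48 h exposure; 5 concentrations. Endpoints by linear interpolation between flanking doses. Not reached: highest tested concentration assigned. TGI is the concentration that stops growth completely.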

Tests used:
Assay in all cases: NCI tumour cell line growth inhibition, 48 h
786-0 renal = system: 786-0 renal
A498 renal = system: A498 renal
A549 NSCLC = system: A549 NSCLC
ACHN renal = system: ACHN renal
CCRF-CEM leukemia = system: CCRF-CEM leukemia
COLO 205 colon = system: COLO 205 colon
DLD-1 colon = system: DLD-1 colon
DMS 114 small cell lung = system: DMS 114 small cell lung
DMS 273 small cell lung = system: DMS 273 small cell lung
EKVX NSCLC = system: EKVX NSCLC
HCC-2998 colon = system: HCC-2998 colon
HCT-116 colon = system: HCT-116 colon
HL-60(TB) leukemia = system: HL-60(TB) leukemia
HOP-18 NSCLC = system: HOP-18 NSCLC
HOP-62 NSCLC = system: HOP-62 NSCLC
HOP-92 NSCLC = system: HOP-92 NSCLC
HT29 colon = system: HT29 colon
IGROV1 ovarian = system: IGROV1 ovarian
K-562 leukemia = system: K-562 leukemia
KM12 colon = system: KM12 colon
KM20L2 colon = system: KM20L2 colon
LOX IMVI melanoma = system: LOX IMVI melanoma
LXFL 529 NSCLC = system: LXFL 529 NSCLC
M19-MEL melanoma = system: M19-MEL melanoma
MALME-3M melanoma = system: MALME-3M melanoma
MOLT-4 leukemia = system: MOLT-4 leukemia
NCI-H23 lung = system: NCI-H23 lung
NCI-H460 lung = system: NCI-H460 lung
NCI-H522 lung = system: NCI-H522 lung
OVCAR-3 ovarian = system: OVCAR-3 ovarian
OVCAR-5 ovarian = system: OVCAR-5 ovarian
OVCAR-8 ovarian = system: OVCAR-8 ovarian
RPMI-8226 leukemia = system: RPMI-8226 leukemia
RXF 393 renal = system: RXF 393 renal
RXF-631 renal = system: RXF-631 renal
SF-268 CNS = system: SF-268 CNS
SF-295 CNS = system: SF-295 CNS
SF-539 CNS = system: SF-539 CNS
SK-MEL-2 melanoma = system: SK-MEL-2 melanoma
SK-MEL-28 melanoma = system: SK-MEL-28 melanoma
SK-MEL-5 melanoma = system: SK-MEL-5 melanoma
SK-OV-3 ovarian = system: SK-OV-3 ovarian
SNB-19 CNS = system: SNB-19 CNS
SNB-75 CNS = system: SNB-75 CNS
SNB-78 CNS = system: SNB-78 CNS
SW-620 colon = system: SW-620 colon
TK-10 renal = system: TK-10 renal
U251 CNS = system: U251 CNS
UACC-257 melanoma = system: UACC-257 melanoma
UO-31 renal = system: UO-31 renal
XF 498 CNS = system: XF 498 CNS

Measured: TGI

Clc1ccc(C2=NN(c3ccccc3)C3c4cc(Br)ccc4OCC23)cc1 (stereo unspecified)
> 100 µM: 786-0 renal | A498 renal | A549 NSCLC | ACHN renal | CCRF-CEM leukemia | COLO 205 colon | DLD-1 colon | DMS 114 small cell lung | DMS 273 small cell lung | EKVX NSCLC | HCC-2998 colon | HCT-116 colon | HL-60(TB) leukemia | HOP-18 NSCLC | HOP-62 NSCLC | HOP-92 NSCLC | HT29 colon | IGROV1 ovarian | K-562 leukemia | KM12 colon | KM20L2 colon | LOX IMVI melanoma | LXFL 529 NSCLC | M19-MEL melanoma | MALME-3M melanoma | MOLT-4 leukemia | NCI-H23 lung | NCI-H460 lung | NCI-H522 lung | OVCAR-3 ovarian | OVCAR-5 ovarian | OVCAR-8 ovarian | RPMI-8226 leukemia | RXF 393 renal | RXF-631 renal | SF-268 CNS | SF-295 CNS | SF-539 CNS | SK-MEL-2 melanoma | SK-MEL-28 melanoma | SK-MEL-5 melanoma | SK-OV-3 ovarian | SNB-19 CNS | SNB-75 CNS | SNB-78 CNS | SW-620 colon | TK-10 renal | U251 CNS | UACC-257 melanoma | UO-31 renal | XF 498 CNS
